In patent US20260027116A1, “Methods of Treating Chronic Graft-Versus-Host Disease Following Allogeneic Hematopoietic Stem Cell Transplantation” (Kadmon Corporation, LLC, priority 2022, published 2026):

Tested on: patients with cGVHD
Method: All responses were assessed by the investigators.
Reported Adverse Events. […] All-cause mortality data collected during the study were assessed for all enrolled participants. Disease progression related death was not reported as AE.
Number of Participants With Treatment-emergent Adverse Events (TEAEs), and Treatment-emergent Serious Adverse Events (TESAEs). […] TEAEs included both SAEs and non-SAEs. […] Analysis was performed on safety population which included all participants who received at least 1 dose of study medication.

## CC(C)NC(=O)COc1cccc(-c2nc(Nc3ccc4[nH]ncc4c3)c3ccccc3n2)c1 [Belumosudil, 2-{3-[4-(1H-indazol-5-ylamino)-2-quinazolinyl]phenoxy}-N-(propan-2-yl) acetamide]
Cohort 2 200 mg BID
  Urinary retention: Affected/At Risk (%): 1/16 (6.25%)
  Urinary tract infection: # Events: 2
  Urinary tract infection: Affected/At Risk (%): 2/16 (12.5%)
  Urinary tract pain: # Events: 1
  Urinary tract pain: Affected/At Risk (%): 1/16 (6.25%)
  Urine output decreased: # Events: 1
  Urine output decreased: Affected/At Risk (%): 1/16 (6.25%)
  Vascular access complication: # Events: 1
  Vascular access complication: Affected/At Risk (%): 1/16 (6.25%)
  Vertigo: # Events: 0
  Vertigo: Affected/At Risk (%): 0/16 (0%)
  Vision blurred: # Events: 2
  Vision blurred: Affected/At Risk (%): 2/16 (12.5%)
  Vomiting: # Events: 3
  Vomiting: Affected/At Risk (%): 3/16 (18.75%)
  Weight decreased: # Events: 0
  Weight decreased: Affected/At Risk (%): 0/16 (0%)
  Weight increased: # Events: 2
  Weight increased: Affected/At Risk (%): 1/16 (6.25%)
  White blood cell count decreased: # Events: 0
  White blood cell count decreased: Affected/At Risk (%): 0/16 (0%)
Cohort 3 400 mg QD
  Abdominal distension: # Events: 1
  Abdominal distension: Affected/At Risk (%): 1/21 (4.76%)
  Abdominal pain upper: # Events: 0
  Abdominal pain upper: Affected/At Risk (%): 0/21 (0%)
  Abdominal pain: # Events: 6
  Abdominal pain: Affected/At Risk (%): 4/21 (19.05%)
  Actinic keratosis: # Events: 1
  Actinic keratosis: Affected/At Risk (%): 1/21 (4.76%)
  Acute kidney injury: # Events: 6
  Acute kidney injury: Affected/At Risk (%): 2/21 (9.52%)
  Acute respiratory distress syndrome: # Events: 0
  Acute respiratory distress syndrome: Affected/At Risk (%): 0/21 (0%)
  Adrenal insufficiency: # Events: 0
  Adrenal insufficiency: Affected/At Risk (%): 0/21 (0%)
  Alanine aminotransferase increased: # Events: 2
  Alanine aminotransferase increased: Affected/At Risk (%): 2/21 (9.52%)
  All grade ALT/AST increased, No. (%): 2 (10)
  All grade Cough, No. (%): 7 (33)
  All grade Diarrhea, No. (%): 7 (33)
  All grade Dyspnea, No. (%): 7 (33)
  All grade Fatigue, No. (%): 9 (43)
  All grade Headache, No. (%): 6 (29)
  All grade Hypertension, No. (%): 4 (19)
  All grade Nausea, No. (%): 8 (38)
  All grade Peripheral edema, No. (%): 6 (29)
  All grade URI, No. (%): 7 (33)
  All-Cause Mortality, %: (14.29%)
  All-Cause Mortality, Affected/At Risk: 3/21
  Anaemia: # Events: 0
  Anaemia: Affected/At Risk (%): 0/21 (0%)
  Anal incontinence: # Events: 0
  Anal incontinence: Affected/At Risk (%): 0/21 (0%)
  Anxiety: # Events: 3
  Anxiety: Affected/At Risk (%): 3/21 (14.29%)
  Any AE, No. (%): 16 (100)
  Arthralgia: # Events: 6
  Arthralgia: Affected/At Risk (%): 5/21 (23.81%)
  Aspartate aminotransferase increased: # Events: 1
  Aspartate aminotransferase increased: Affected/At Risk (%): 1/21 (4.76%)
  Asthenia: # Events: 0
  Asthenia: Affected/At Risk (%): 0/21 (0%)
  Atelectasis: # Events: 0
  Atelectasis: Affected/At Risk (%): 0/21 (0%)
  Back pain: # Events: 1
  Back pain: Affected/At Risk (%): 1/21 (4.76%)
  Balance disorder: # Events: 0
  Balance disorder: Affected/At Risk (%): 0/21 (0%)
  Basal cell carcinoma: # Events: 0
  Basal cell carcinoma: Affected/At Risk (%): 0/21 (0%)
  Benign prostatic hyperplasia: # Events: 0
  Benign prostatic hyperplasia: Affected/At Risk (%): 0/21 (0%)
  Blepharitis: # Events: 2
  Blepharitis: Affected/At Risk (%): 1/21 (4.76%)
  Blister: # Events: 1
  Blister: Affected/At Risk (%): 1/21 (4.76%)
  Blood alkaline phosphatase increased: # Events: 0
  Blood alkaline phosphatase increased: Affected/At Risk (%): 0/21 (0%)
  Blood chloride decreased: # Events: 0
  Blood chloride decreased: Affected/At Risk (%): 0/21 (0%)
  Blood cholesterol increased: # Events: 1
  Blood cholesterol increased: Affected/At Risk (%): 1/21 (4.76%)
  Blood creatine increased: # Events: 0
  Blood creatine increased: Affected/At Risk (%): 0/21 (0%)
  Blood creatine phosphokinase increased: # Events: 0
  Blood creatine phosphokinase increased: Affected/At Risk (%): 0/21 (0%)
  Blood creatinine increased: # Events: 2
  Blood creatinine increased: Affected/At Risk (%): 2/21 (9.52%)
  Blood loss anaemia: # Events: 0
  Blood loss anaemia: Affected/At Risk (%): 0/21 (0%)
  Bronchial secretion retention: # Events: 0
  Bronchial secretion retention: Affected/At Risk (%): 0/21 (0%)
  Bronchitis: # Events: 1
  Bronchitis: Affected/At Risk (%): 1/21 (4.76%)
  Bronchoscopy: # Events: 0
  Bronchoscopy: Affected/At Risk (%): 0/21 (0%)
  Catheter site haemorrhage: # Events: 0
  Catheter site haemorrhage: Affected/At Risk (%): 0/21 (0%)
  Chills: # Events: 0
  Chills: Affected/At Risk (%): 0/21 (0%)
  Chronic kidney disease: # Events: 0
  Chronic kidney disease: Affected/At Risk (%): 0/21 (0%)
  Conjunctival haemorrhage: # Events: 1
  Conjunctival haemorrhage: Affected/At Risk (%): 1/21 (4.76%)
  Conjunctivitis: # Events: 3
  Conjunctivitis: Affected/At Risk (%): 3/21 (14.29%)
  Constipation: # Events: 4
  Constipation: Affected/At Risk (%): 3/21 (14.29%)
  Contrast media allergy: # Events: 0
  Contrast media allergy: Affected/At Risk (%): 0/21 (0%)
  Contusion: # Events: 4
  Contusion: Affected/At Risk (%): 3/21 (14.29%)
  Corneal abrasion: # Events: 0
  Corneal abrasion: Affected/At Risk (%): 0/21 (0%)
  Corneal infection: # Events: 0
  Corneal infection: Affected/At Risk (%): 0/21 (0%)
  Cough: # Events: 9
  Cough: Affected/At Risk (%): 7/21 (33.33%)
  Death, No. (%): 2 (10)
  Decreased appetite: # Events: 4
  Decreased appetite: Affected/At Risk (%): 4/21 (19.05%)
  Dehydration: # Events: 2
  Dehydration: Affected/At Risk (%): 2/21 (9.52%)
  Depression: # Events: 3
  Depression: Affected/At Risk (%): 3/21 (14.29%)
  Diarrhoea: # Events: 11
  Diarrhoea: Affected/At Risk (%): 7/21 (33.33%)
  Dizziness: # Events: 2
  Dizziness: Affected/At Risk (%): 2/21 (9.52%)
  Drug eruption: # Events: 0
  Drug eruption: Affected/At Risk (%): 0/21 (0%)
  Drug-related AE, No. (%): 14 (67)
  Drug-related SAE, No. (%): 0
  Dry eye: # Events: 2
  Dry eye: Affected/At Risk (%): 2/21 (9.52%)
  Dry skin: # Events: 1
  Dry skin: Affected/At Risk (%): 1/21 (4.76%)
  Dyspepsia: # Events: 1
  Dyspepsia: Affected/At Risk (%): 1/21 (4.76%)
  Dysphagia: # Events: 3
  Dysphagia: Affected/At Risk (%): 2/21 (9.52%)
  Dyspnoea exertional: # Events: 0
  Dyspnoea exertional: Affected/At Risk (%): 0/21 (0%)
  Dyspnoea: # Events: 6
  Dyspnoea: Affected/At Risk (%): 6/21 (28.57%)
  Embolism: # Events: 1
  Embolism: Affected/At Risk (%): 1/21 (4.76%)
  Enamel anomaly: # Events: 0
  Enamel anomaly: Affected/At Risk (%): 0/21 (0%)
  Epidural lipomatosis: # Events: 0
  Epidural lipomatosis: Affected/At Risk (%): 0/21 (0%)
  Epstein-Barr virus infection: # Events: 0
  Epstein-Barr virus infection: Affected/At Risk (%): 0/21 (0%)
  Erectile dysfunction: # Events: 0
  Erectile dysfunction: Affected/At Risk (%): 0/21 (0%)
  Eye irritation: # Events: 0
  Eye irritation: Affected/At Risk (%): 0/21 (0%)
  Eye pain: # Events: 0
  Eye pain: Affected/At Risk (%): 0/21 (0%)
  Eye pruritus: # Events: 0
  Eye pruritus: Affected/At Risk (%): 0/21 (0%)
  Fall: # Events: 1
  Fall: Affected/At Risk (%): 1/21 (4.76%)
  Fatigue: # Events: 14
  Fatigue: Affected/At Risk (%): 10/21 (47.62%)
  Flatulence: # Events: 1
  Flatulence: Affected/At Risk (%): 1/21 (4.76%)
  Flushing: # Events: 0
  Flushing: Affected/At Risk (%): 0/21 (0%)
